Read-outs that look alike come from different tables or passages of the source. Values belong to the compound of their own block, whether it stands above or below them. Residues, ends and D or L forms follow the SMILES beside them.
What was measured:
MDA-MB-231 cells = test: Cytotoxicity of MTX-bound peptide, WST-1 assay; assay type: cell-based
Procedure: (§1) Specifically, HeLa cells were cultured in DMEM at a condition of 37° C. with 5% CO2. The cells were respectively cultured in a cell culture plate, and then removed with trypsin. The cells were seeded at 1×10^4 cells per well in a 96-well plate. After 24 hours, the peptide was added to the media, and culture was performed again at a condition of 37° C. with 5% CO2 for 24 hours. 10 uL of WST-1 reagent was added per well, and reaction was allowed to proceed for 30 minutes at a condition of 37° C. with 5% CO2. Then, UV absorbance was measured at 450/700 nm with a 96-well plate reader.
In order to identify a drug delivery effect of a peptide, a peptide in which methotrexate (MTX) is bound to the N-terminus of one monomer of a dimer was synthesized according to a known method (Kim et al. Biomacromolecules 2016).
MDA-MB-231 cells were seeded in a 96-well plate at a density of 2.5×10^3 cells/well, and treated with the MTX-bound peptide for 48 hours starting from the next day.

HeLa cells [1] = test: Cytotoxicity of dimeric peptides, WST-1 assay; assay type: cell-based, human; conditions: for ratio: IC50 relative to LK-3, HeLa cells
Procedure: Cytotoxicity was identified using WST-1 assay by treating HeLa cells with peptides in a 96-well plate (1×10^4 cells/well) for 24 hours.
as §1

NIH-3T3 = test: IC50 of MTX in cell line NIH-3T3; assay type: cell-based; conditions: Mus musculus, NIH3T3
MDA-MB-231 = test: IC50 of MTX in cell line MDA-MB-231; assay type: cell-based; conditions: Homo sapiens
HeLa = test: IC50 of MTX in cell line HeLa; assay type: cell-based; conditions: Homo sapiens
HeLa cells [2] = test: Cell-penetrating ability of fluorescently labeled dimeric peptides, flow cytometry; assay type: cell-based, human; conditions: at 62.5 nM, FIG. 6A
Procedure: During preparation of CPPs in dimeric form shown in Tables 1 to 3, one monomer thereof was prepared in a form where 5-TAMRA fluorescence was attached to the N-terminus, instead of acetyl. A monomer with acetyl and a monomer with 5-TAMRA fluorescence were mixed in a molar ratio of 1:1, and subjected to an oxidation condition in air to produce a dimeric form in which only one fluorescence was labeled per dimer molecule. Then, cell-penetrating ability of each dimer was identified. Each fluorescently labeled peptide was used to treat HeLa cells (5×10^4 cells/well), which are human-derived cells, and a ratio of the number of cells with fluorescence to the total number of cells was obtained through flow cytometry.
FIGS. 4B to 4D illustrate results obtained by treating cells with respective dimers at the same concentration (62.5 nM), measuring fluorescence intensity of the cells by flow cytometry, and relatively comparing the fluorescence intensity.
Based on cell-penetrating ability and cytotoxicity of the dimeric peptides of the present disclosure, correlation therebetween was identified. Cytotoxicity (IC50^−1) and cell-penetrating ability of the respective peptides were identified at 62.5 nM according to the methods described in Examples 5 and 6, and then graphically represented.

[3] = Intracellular delivery of CsA with fluorescence by non-covalent bonding with peptide; assay type: cell-based; conditions: FIG. 8
Source text: For the peptides with various compositions of lysine and arginine, their intracellular delivery by non-covalent bonding with CsA was identified using CsA with fluorescence.

IL-2 = test: Decrease of extracellularly secreted IL-2 in Jurkat cells, ELISA; assay type: cell-based; conditions: CsA complex with diLR10 versus CsA only
Procedure: The hydrophobic drug cyclosporine (CsA) was mixed with a peptide and incubated at room temperature for 20 minutes to create a complex with the hydrophobic drug. Then, Jurkat cells (1.0×10^4 cells/well) were treated with the complex for 4.5 hours. An amount of extracellularly secreted IL-2 was measured by an ELISA method to identify, through IC50 values, whether an anti-inflammatory effect caused by CsA, which corresponded to a relative decrease in IL-2, was enhanced by the cell-penetrating peptide diLR10.

Compound: CC(=O)N[C@@H](CC(C)C)C(=O)N[C@H]1CSSC[C@@H](C(=O)N[C@@H](CCCCN)C(N)=O)NC(=O)[C@H](CC(C)C)NC(=O)[C@H](CCCCN)NC(=O)[C@H](CCCCN)NC(=O)[C@H](CC(C)C)NC(=O)[C@H](CC(C)C)NC(=O)[C@H](CCCCN)NC(=O)[C@@H](NC(=O)[C@H](CC(C)C)NC(C)=O)CSSC[C@@H](C(=O)N[C@@H](CCCCN)C(N)=O)NC(=O)[C@H](CC(C)C)NC(=O)[C@H](CCCCN)NC(=O)[C@H](CCCCN)NC(=O)[C@H](CC(C)C)NC(=O)[C@H](CC(C)C)NC(=O)[C@H](CCCCN)NC1=O [diLK10] (HELM PEPTIDE1{[ac].L.C.K.L.L.K.K.L.C.K.[am]}|PEPTIDE2{[ac].L.C.K.L.L.K.K.L.C.K.[am]}$PEPTIDE1,PEPTIDE2,3:R3-10:R3|PEPTIDE1,PEPTIDE2,10:R3-3:R3$$$V2.0)
- IC50 (MDA-MB-231 cells; 48 hours, MTX bound to N-terminus of one monomer of the dimer, MTX column = MTX alone, read-out: IC50 of MTX-bound peptide): 0.0459 µM
- IC50 (MDA-MB-231 cells; peptide itself, without MTX, read-out: IC50): ~13.7 µM
- IC50 (HeLa cells [1]; HeLa cells, WST-1, peptide treatment 24 hours): 12.4 µM
- ratio (HeLa cells [1]): 2.79

- IC50 (MDA-MB-231): 0.97 µM
- IC50 (HeLa): ~0.031 µM
Compound: CN(Cc1cnc2nc(N)nc(N)c2n1)c1ccc(C(=O)N[C@@H](CCC(=O)O)C(=O)O)cc1 [MTX, methotrexate]
- IC50 (NIH-3T3): 0.037 µM
- IC50 (MDA-MB-231 cells; Homo sapiens, 48 hours, MTX bound to N-terminus of one monomer of the dimer, MTX column = MTX alone, read-out: IC50 of MTX-bound peptide): 0.972 µM

Compound: CC(=O)N[C@@H](Cc1ccccc1)C(=O)N[C@H]1CSSC[C@@H](C(=O)N[C@@H](CCCNC(=N)N)C(N)=O)NC(=O)[C@H](Cc2ccccc2)NC(=O)[C@H](CCCNC(=N)N)NC(=O)[C@H](CCCNC(=N)N)NC(=O)[C@H](Cc2ccccc2)NC(=O)[C@H](Cc2ccccc2)NC(=O)[C@H](CCCNC(=N)N)NC(=O)[C@@H](NC(=O)[C@H](Cc2ccccc2)NC(C)=O)CSSC[C@@H](C(=O)N[C@@H](CCCNC(=N)N)C(N)=O)NC(=O)[C@H](Cc2ccccc2)NC(=O)[C@H](CCCNC(=N)N)NC(=O)[C@H](CCCNC(=N)N)NC(=O)[C@H](Cc2ccccc2)NC(=O)[C@H](Cc2ccccc2)NC(=O)[C@H](CCCNC(=N)N)NC1=O [diFR10] (HELM PEPTIDE1{[ac].F.C.R.F.F.R.R.F.C.R.[am]}|PEPTIDE2{[ac].F.C.R.F.F.R.R.F.C.R.[am]}$PEPTIDE1,PEPTIDE2,3:R3-10:R3|PEPTIDE1,PEPTIDE2,10:R3-3:R3$$$V2.0; bridges inferred)
- ratio of cell-penetrating ability to cytotoxicity (IC50^−1) (HeLa cells [2]): low toxicity as compared with cell-penetrating ability
- ratio (HeLa cells [1]): 4.10

Compound: diLR10^R3K: dimer of monomer LR10^R3K, Ac-LCKLLRRLCR-NH2 (SEQ ID NO 30) (also: dimer of two monomers linked by interchain disulfide bonds)
- intracellular delivery ability for CsA [3]: best intracellular delivery ability for CsA

- decrease of IC50 value (IL-2): 21%
Compound: CC(=O)N[C@@H](CC(C)C)C(=O)N[C@H]1CSSC[C@@H](C(=O)N[C@@H](CCCNC(=N)N)C(N)=O)NC(=O)[C@H](CC(C)C)NC(=O)[C@H](CCCNC(=N)N)NC(=O)[C@H](CCCNC(=N)N)NC(=O)[C@H](CC(C)C)NC(=O)[C@H](CC(C)C)NC(=O)[C@H](CCCNC(=N)N)NC(=O)[C@@H](NC(=O)[C@H](CC(C)C)NC(C)=O)CSSC[C@@H](C(=O)N[C@@H](CCCNC(=N)N)C(N)=O)NC(=O)[C@H](CC(C)C)NC(=O)[C@H](CCCNC(=N)N)NC(=O)[C@H](CCCNC(=N)N)NC(=O)[C@H](CC(C)C)NC(=O)[C@H](CC(C)C)NC(=O)[C@H](CCCNC(=N)N)NC1=O [diLR10] (HELM PEPTIDE1{[ac].L.C.R.L.L.R.R.L.C.R.[am]}|PEPTIDE2{[ac].L.C.R.L.L.R.R.L.C.R.[am]}$PEPTIDE1,PEPTIDE2,3:R3-10:R3|PEPTIDE1,PEPTIDE2,10:R3-3:R3$$$V2.0; bridges inferred)
- ratio of cell-penetrating ability to cytotoxicity (IC50^−1) (HeLa cells [2]): low toxicity as compared with cell-penetrating ability
- increase in IC50 value as compared with LK-3 (HeLa cells [1]; HeLa cells): about 5 fold
- ratio (HeLa cells [1]): 4.26

Source: patent publication US20230242582A1, “NOVEL ALPHA-HELICAL DOUBLE-SIDED CELL PENETRATING PEPTIDE AND USE THEREOF” (CAMP THERAPEUTICS INC., priority 2020, published 2023)
